Experimental data published in PubChem BioAssay (NCI).
“And” between values parts separate entries of the source, which are not always exact repeats. Identical values can stand only once.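 48-hour exposure; five concentrations; linearly interpolated endpoints. GI50 marks 50% less growth. Definition used: TGI = concentration required for complete inhibition of growth.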

What was measured:
Experiment in all cases: DTP human tumour cell line panel, 48 h
A498 renal = tested on: A498 renal
HL-60(TB) leukemia = tested on: HL-60(TB) leukemia
KM12 colon = tested on: KM12 colon
M14 melanoma = tested on: M14 melanoma
MALME-3M melanoma = tested on: MALME-3M melanoma
OVCAR-8 ovarian = tested on: OVCAR-8 ovarian
SK-MEL-28 melanoma = tested on: SK-MEL-28 melanoma
SR leukemia = tested on: SR leukemia
T-47D breast = tested on: T-47D breast
UACC-62 melanoma = tested on: UACC-62 melanoma

Row | SMILES | GI50 (A498 renal) [nM] | TGI (A498 renal) [µM] | GI50 (HL-60(TB) leukemia) | TGI (HL-60(TB) leukemia) | GI50 (KM12 colon) | TGI (KM12 colon) | GI50 (M14 melanoma) [µM] | TGI (M14 melanoma) [µM] | GI50 (MALME-3M melanoma) | TGI (MALME-3M melanoma) | GI50 (OVCAR-8 ovarian) | TGI (OVCAR-8 ovarian) | GI50 (SK-MEL-28 melanoma) [nM] | TGI (SK-MEL-28 melanoma) [µM] | GI50 (SR leukemia) | TGI (SR leukemia) | GI50 (T-47D breast) [nM] | TGI (T-47D breast) [µM] | GI50 (UACC-62 melanoma) [nM] | TGI (UACC-62 melanoma)
1 | C=C1C(=O)O[C@H]2[C@H]1CC/C(COC(=O)/C=C/c1cccnc1)=C\CC[C@@]1(C)O[C@@H]21 | 4110 | 16.3 | 741 nM | 3.7 µM | 3470 nM | 13.2 µM | 1.38 | 3.23 | 1690 nM | 3.63 µM | 3.85 µM | 13.9 µM | 1260 | 2.61 | 1570 nM | 7.01 µM | 1880 | 5.12 | 1890 | 5 µM
2 | O=C(O)CSCC(=O)c1ccccc1 |  | > 100 |  | > 100 µM |  | > 100 µM |  | > 100 |  | > 100 µM |  | > 100 µM |  | > 100 |  | > 100 µM |  | > 100 |  | > 100 µM
3 | O=C(O)C1CCCN1Cc1c[nH]c2ccccc12 (stereo not given) |  | > 100 |  | > 100 µM |  | > 100 µM |  | > 100 |  | > 100 µM |  | > 100 µM |  | > 100 |  | > 100 µM |  | > 100 |  | > 100 µM
4 | O=C(Oc1cccc(Nc2ncnc3ccccc23)c1)c1ccccc1Cl | 23800 | 49.4 | 79400 nM | > 100 µM | 14400 nM | 31.4 µM | 39.7 | > 100 | 23900 nM | 57.1 µM | 20.2 µM | 59.1 µM | 48700 | > 100 | 65700 nM | > 100 µM | 29200 | > 100 | 22500 | 80.6 µM
5 | O=C(CSc1nc2ccc([N+](=O)[O-])cc2[nH]1)Nc1cccc(C(F)(F)F)c1 | 963 | 3.52 | 2570 nM | 8.33 µM | 2200 nM | 8.08 µM | 3.17 | 14.9 | 1480 nM | 6.66 µM | 2.93 µM | 15.8 µM | 2340 | 13.5 | 3020 nM | > 43.7 µM | 1140 | 11.8 | 1100 | 8.85 µM
6 | Cc1c(C(=O)CCl)c(=O)n(-c2ccccc2)n1C | 1240 | 11 | 3800 nM | 13.5 µM | 10400 nM | 22.6 µM | 3.13 | 15.4 | 1310 nM | 6.98 µM | 3.85 µM | 28.3 µM | 3270 | 11.6 | 2280 nM | 13.5 µM | 2430 | 17.6 | 4780 | 18.9 µM
7 | O=C1c2cccnc2-c2nc(-c3ccccn3)cc3c2c1nc1ccccc13 | 481 | 1.5 | 66 nM |  | 426 nM | 3.17 µM | 0.228 | 1.36 | 377 nM | 1.72 µM | 0.15 µM | 0.402 µM | 452 | 1.75 |  | 25.3 µM | 601 | 11.9 | 191 | 0.63 µM
8 | Clc1ccc(Nc2ccnc(NCCNc3ccnc4cc(Cl)ccc34)n2)cc1 | 1130 | 2.39 | 2090 nM | 4.92 µM | 1620 nM | 3.06 µM | 1.4 | 3.09 | 1740 nM | 3.48 µM | 1.59 µM | 3.37 µM | 1580 | 3.03 | 1390 nM | 3.43 µM | 1150 | 3.05 | 1690 | 3.17 µM
9 | Cc1c2ncccc2c(C)c2c1[nH]c1ccc(O)cc12 |  | 26.1 | 3840 nM and 4760 nM | 10.5 µM and 15 µM | 7190 nM and 7870 nM | 19.9 µM and 23.1 µM | 8.67 | 17.2 | 6440 nM and 32700 nM | 23.2 µM and 103 µM | 4.99 µM and 2.86 µM | 18.2 µM and 32.1 µM |  | 27.3 | 2910 nM and 2480 nM | 7.31 µM and 18.9 µM | 42800 |  | 7920 | 27.1 µM and 21.1 µM
10 | COc1ccc(/C=C/C(=O)/C=C(/C=C/c2ccc(OC)c(OC)c2)OB(F)F)cc1OC | 1830 | 5.12 | 495 nM | 3.64 µM | 1780 nM | 3.95 µM | 0.519 | 3.55 | 510 nM | 4.25 µM | 0.417 µM | > 100 µM | 1180 | 3.1 | 287 nM | 1.69 µM | 805 | > 100 | 574 | 2.16 µM
11 | Cn1cc(-c2nc(-c3c[nH]c4ncccc34)cs2)c2cc(Cl)ccc21 | 2610 | 12.9 | 5930 nM | > 100 µM | 2260 nM | 7.47 µM | 4.85 | 40.7 | 12500 nM | 56.7 µM | 6.04 µM | > 100 µM | 7430 | > 100 | 6920 nM | > 100 µM | 91.3 | 23.6 | 8800 | > 100 µM
12 | COc1ccc(C(=O)c2cc(OC)c(OC)c(OC)c2)cc1/C=C/C(=O)c1ccc(O)cc1 | 3140 | 15.1 | 693 nM | > 100 µM | 2440 nM | 7.05 µM | 1.98 | 5.86 | 9690 nM | 25.1 µM | 4.48 µM | > 100 µM | 4750 | 17.5 | 433 nM | > 100 µM | 19000 | > 100 | 1690 | 3.77 µM
13 | CC(C)(C)[Si](C)(C)OC1[C@@H](O[Si](C)(C)C(C)(C)C)[C@@H](CNC(=O)NC(=O)NC(=O)CI)O[C@H]1n1cnc2c(NC(=O)Nc3ccccc3)ncnc21 (stereo not given in full) | 3610 | 11.4 | 84.5 nM | 0.166 µM | 680 nM | 3.78 µM | 6.1 | 14.6 | 143 nM | 0.565 µM | 0.275 µM | 0.925 µM | 9690 | 22.8 | 44.7 nM | 0.159 µM | 9630 | 28 | 8630 | 22.6 µM
